Legend:
Format in all cases: physicochemical
[1] = High-temperature stability test (60°C, HPLC)
Excerpt: (§1) The resulting sample was sampled at day 6, day 14 and day 34 for HPLC analysis.

[2] = Dissolution stability in different pH and biologically relevant media (XRPD before and after); settings: pH 1.0, 1.2, 3.0, 4.5, 5.0, 6.8, 7.0, 7.4, 9.0, FaSSGF (pH 1.6), FaSSIF (pH 6.5), FeSSIF (pH 5.0)
[3] = Dynamic vapour sorption (DVS) test
Procedure: A certain amount of powder was taken and put into a sample pan, and hygroscopicity of the sample was evaluated with DVS according to the following instrument method:

[4] = High-humidity stability test (90% RH, HPLC)
Excerpt: as §1

[5] = Preliminary solubility test in solvents at room temperature; settings: listed as crystal form A of the free state
Procedure: Table 10 Solubility range of the starting material sample at room temperature
The solubility range in the corresponding solvent was calculated based on the mass of the sample and the volume of the added solvent, as shown in Table 28. The data were used as a base to guide the selection of solvent in screening tests. Table 28 Preliminary solubility of crystal form A of the free state at room temperature
The solubility range in the corresponding solvent was calculated based on the mass of the sample and the volume of the added solvent, as shown in Table 35. The data were used as a base to guide the selection of solvent in the screening tests.

[6] = Photostability test (direct sunlight, HPLC)
Excerpt: The resulting sample was sampled at day 4 and day 15 for HPLC analysis.

[7] = Forced degradation stability test (heat, humidity and heat, light)
Procedure: Crystal form A of the free state was placed under the following different conditions for the forced degradation stability test: • About 10 mg of the sample powder was weighed into a vial and placed under the conditions of 50 °C, 80°C, and 40 °C/75%RH (unsealed) for 1 day, 2 weeks, and 4 weeks, respectively. And then, the thermal stability was evaluated. • About 10 mg of the sample powder was weighed and placed in a transparent vial, an amber vial, and a transparent vial sealed with aluminum foil, respectively. Those vials were placed in a light box for 10 days, with a total illumination of 1.2×10^6 Lux·hr and a near-UV energy not less than 200w·hr/m^2, for photostability evaluation.
The samples were taken at each time point for HPLC and XRPD analysis to evaluate the chemical and physical stability.

Q: Which results are given for `CC(C)C[C@@H](C(=O)Nc1ccn(C[C@@H](O)COC(=O)c2cccnc2)n1)N1CC(Oc2ccccc2Cl)=CC1=O` [Free state crystal form A, (R)-3-(3-((S)-2-(4-(2-chlorophenoxy)-2-oxo-2,5-dihydro-1H-pyrrol-1-yl)-4-methylpentanamido)-1H-pyrazol-1-yl)-2-hydroxypropyl nicotinate]?
A: Purity (Area%) ([1]; 0h): 98.17 Area%; stability at high temperature ([1]; 60°C for 14 days): still stable; Purity (Area%) ([1]; 60°C, Day 6, without cover): 99.03 Area%; Purity (Area%) ([1]; 60°C, Day 14, without cover): 99.11 Area%; crystal form before and after solubility test (XRPD) [2]: does not change; Water sorption capacity at 80%RH, % ([3]; DVS, 25 °C, 80%RH): 0.3556%; Water sorption capacity at 90%RH, % ([3]; DVS, 25 °C, 90%RH): 0.4782%; Water sorption capacity at 95%RH, % ([3]; DVS, 25 °C, 95%RH): 0.6525%; moisture-induced weight gain ([3]; relative humidity of 95%): less than 0.7%; moisture-induced weight gain ([3]; relative humidity of less than or equal to 90%, listed as crystal form A of the free state): less than 0.5%; Purity (Area%) ([4]; 0 hour): 98.17 Area%; stability at high humidity ([4]; 90% relative humidity for 14 days): still stable; Purity (Area%) ([4]; 90%RH, Day 6, without cover): 98.99 Area%; Purity (Area%) ([4]; 90%RH, Day 14, without cover): 99.09 Area%; Solubility (mg/mL) ([5]; 1,4-Dioxane, room temperature): S>40.0 mg/mL; Solubility (mg/mL) ([5]; Acetone, room temperature): S>40.0 mg/mL; Solubility (mg/mL) ([5]; CHCl3, room temperature): S>40.0 mg/mL; Solubility (mg/mL) ([5]; DCM, room temperature): S>40.0 mg/mL; Solubility (mg/mL) ([5]; DMAc, room temperature): S>40.0 mg/mL; Solubility (mg/mL) ([5]; DMSO, room temperature): S>42.0 mg/mL; Solubility (mg/mL) ([5]; H2O, room temperature): S<1.0 mg/mL; Solubility (mg/mL) ([5]; MTBE, room temperature): S<1.0 mg/mL; Solubility (mg/mL) ([5]; MeOH, room temperature (25±3 °C)): S>42.0 mg/mL; Solubility (mg/mL) ([5]; NMP, room temperature): S>40.0 mg/mL; Solubility (mg/mL) ([5]; THF, room temperature): S>40.0 mg/mL; Solubility (mg/mL) ([5]; Toluene, room temperature): S<1.0 mg/mL; Solubility (mg/mL) ([5]; n-Heptane, room temperature): S<1.1 mg/mL; Purity (Area%) ([6]; 0 hour): 98.17 Area%; Purity (Area%) ([6]; Photostability Day 4, direct sunlight): 99.07 Area%; Purity (Area%) ([6]; Photostability Day 15, direct sunlight): 99.10 Area%; stability under sunlight ([6]; sunlight for 15 days): still stable; Purity, % ([7]; 40°C/75%RH (unsealed), 2 weeks, HPLC): 99.15%; Purity, % ([7]; 40°C/75%RH (unsealed), 4 weeks, HPLC): 99.15%; Purity, % ([7]; 40°C/75%RH (unsealed), 24 hours, HPLC): 99.09%; Purity, % ([7]; 50°C, 2 weeks, HPLC): 99.10%; Purity, % ([7]; 50°C, 4 weeks, HPLC): 99.11%; high-temperature and humidity-thermal stability ([7]; 50 °C, 80°C, 40 °C/75%RH (unsealed)): excellent; crystalline form under forced degradation test conditions (XRPD) ([7]; 50 °C, 80°C, 40 °C/75%RH for 1 day, 2 weeks, 4 weeks, light box 10 days): does not change; Purity, % ([7]; 50°C, 24 hours, HPLC): 99.08%; Purity, % ([7]; 80°C, 2 weeks, HPLC): 99.12%; Purity, % ([7]; 80°C, 4 weeks, HPLC): 99.14%; Purity, % ([7]; 80°C, 24 hours, HPLC): 99.12%; Purity, % ([7]; Light-amber vial, 10 days, light box, […]10^6 Lux·hr): 99.17%; Purity, % ([7]; Light-transparent vial sealed with aluminum foil, 10 days, light box, […]10^6 Lux·hr): 99.17%; Purity, % ([7]; Light-transparent vial, 10 days, light box, […]10^6 Lux·hr): 99.10%; Purity, % ([7]; Starting, 0h, HPLC): 99.10%; effect of light on the stability ([7]; light box 10 days, […]10^6 Lux·hr): no effect

Source: patent publication EP4682144A1, “SOLID FORM OF PYRROLIDONE DERIVATIVE AS GLUCOKINASE ACTIVATOR” (Hua Medicine (Shanghai) Ltd., priority 2023, dated 2024)
